Laboratory results as given in patent US7033810B2, “Sitosterolemia susceptibility gene (SSG): compositions and methods of use” (Amgen Inc., priority 2000, dated 2006).

Columns and labels:
human ABC1 = experiment: Northern blot, ABC1 expression in Caco-2 cells; type: cell-based; conditions: Human Caco-2 cells
Description: (§1) Human Caco-2 cells were treated with Compounds B and C. Northern blot analysis was performed (essentially as described above) using human ABC1 and ABC8 cDNA probes.

human ABC8 = experiment: Northern blot, ABC8 expression in Caco-2 cells; type: cell-based; conditions: Human Caco-2 cells
Description: as §1

[1] = system: EST clone AA237916 (murine SSG); experiment: GEM analysis, EST clone AA237916; type: in vivo, C57BL/6 mouse
Description: Total RNA was prepared from untreated (control) and treated (50 mg/kg of LXRα agonist Compound A) C57BL/6 mouse liver, intestine and kidney. Control and treated RNA samples were used to generate separate pools of unique, fluorescently labeled cDNA probes (performed at Incyte Genomics Inc.). Each (two fluorescent probe) tissue sample was simultaneously applied to a single Incyte Mouse GEM™ 1 microarray where they were competitively reacted with the arrayed cDNA molecules (containing 8,734 cDNA elements). The intensity of the fluorescence at each array element is proportional to the expression level of that particular gene in the sample. Each element of the GEM™ microarray was scanned for the first fluorescent color, and then repeated for the second fluorescent label. The ratio of the two fluorescent intensities provided a quantitative measurement of the relative gene expression level in the two samples. […] A portion of that composite is shown in Table 2, which lists genes having the highest relative expression levels in the treated intestine and their corresponding relative expression levels in liver and kidney. […] One EST in particular, corresponding to Accession Number AA237916, and shown in the first row of Table 2, was selected for further analysis, in part based on its similarity to the Drosophila Brown protein, a member of the ABC superfamily. […]

SSG mRNA = experiment: Northern blot of SSG mRNA in tissues of treated mice; type: in vivo, C57BL/6 mouse; conditions: 0, 1, 5 and 50 mg/kg
Description: (§2) Total RNA was prepared from untreated (control) and treated (0, 1, 5 and 50 mg/kg of LXRa agonist Compound A) C57BL/6 mouse liver, intestine and kidney. RNA was electrophoresed on 1.2% agarose/formaldehyde gels, transferred to nylon membrane (Ambion, Bright Star), hybridized to ^32P-labeled murine SSG cDNA probe, washed and subjected to autoradiography.

ABC1 mRNA = experiment: Northern blot of ABC1 mRNA in tissues of treated mice; type: in vivo, C57BL/6 mouse; conditions: 0, 1, 5 and 50 mg/kg
Description: as §2, with “ABC-1, apolipoprotein AI, and GAPDH” for “SSG”, “probes,” for “probe,”

apolipoprotein AI mRNA = experiment: Northern blot of apolipoprotein AI mRNA in tissues of treated mice; type: in vivo, C57BL/6 mouse; conditions: liver, intestine and kidney; 0, 1, 5 and 50 mg/kg
Description: as §2, with “ABC-1, apolipoprotein AI, and GAPDH” for “SSG”, “probes,” for “probe,”

GAPDH mRNA = experiment: Northern blot of GAPDH mRNA in tissues of treated mice; type: in vivo, C57BL/6 mouse; conditions: liver, intestine and kidney; 0, 1, 5 and 50 mg/kg
Description: as §2, with “ABC-1, apolipoprotein AI, and GAPDH” for “SSG”, “probes,” for “probe,”

Caco-2 cells = experiment: [3H]-cholesterol efflux from Caco-2 cells; type: cell-based, human; conditions: 1 μM, 24 h treatment; efflux media with apolipoprotein AI 10 ug/ml; 8 and 24 hour time points
Description: Caco2 cells (an adenocarcinoma cell line derived from human colon) were plated in 6 well plates at 50-60% confluence and allowed to adhere overnight in DMEM containing 10% FBS, non-essential amino acids, and Pen/Strep. On the second day, cells were labeled for 24 h with [^3H]-cholesterol (0.5 μCi/ml in DMEM and 1% BSA, Pen/Strep). Cells were washed (2×) with PBS and DMEM (1% BSA) with or without the addition of Compound A (1 μM final concentration). After 24 h treatment, cells were washed (2× with PBS) and efflux media was added containing purified apolipoprotein AI (10 ug/ml). Cells and media were harvested at 8 and 24 hour time points. Cells were washed 3× with PBS, and lysed with 300 μl of 0.5 M NaOH. Radioactivity in media and cell lysates were scintillation counted and normalized to cell protein (using BioRad Lowry Kit). Efflux data shown in is presented as CPM (media)/mg cell protein (FIG. 4).

SMILES | human ABC1 expression (Northern blot) (human ABC1) | human ABC8 expression (Northern blot) (human ABC8) | induction of EST clone AA237916 (murine SSG) ([1]; intestine of treated mice) | induction of EST clone AA237916 (murine SSG) ([1]; liver of treated mice) | SSG expression (mRNA, Northern blot) (SSG mRNA; intestine) | SSG expression (mRNA, Northern blot) (SSG mRNA; liver) | ABC1 mRNA (ABC1 mRNA; intestine) | ABC1 mRNA (ABC1 mRNA; kidney) | ABC1 mRNA (ABC1 mRNA; liver) | apolipoprotein AI mRNA levels (apolipoprotein AI mRNA) | GAPDH mRNA levels (GAPDH mRNA) | cholesterol efflux (Caco-2 cells)
CN(c1ccc(C(O)(C(F)(F)F)C(F)(F)F)cc1)S(=O)(=O)c1ccccc1 [B] | induced | induced | – | – | – | – | – | – | – | – | – | –
CC(c1ccco1)N(C(=O)C12CC3CC(CC(C3)C1)C2)c1ccccn1 (centres unmarked) [C] | induced | induced | – | – | – | – | – | – | – | – | – | –
O=S(=O)(c1ccccc1)N(CC(F)(F)F)c1ccc(C(O)(C(F)(F)F)C(F)(F)F)cc1 [Compound A] | – | – | 2.5 fold | 2.4 fold | induced | induced | Dose dependent increases | Dose dependent increases | Dose dependent increases | no measurable difference | no measurable difference | Stimulates Cholesterol Efflux
